Experimental data from patent US20260263448A1, “CONTROLLED RELEASE INJECTABLE CARIPRAZINE FORMULATION” (Richter Gedeon Nyrt., priority 2021, published 2026).
≈ marks a conversion by molar mass, not a printed value. Counter-ions that a name gives are not always drawn. Like-named read-outs stand apart in the source and are kept apart here.

Assay: Solubility at different pH values (37° C.)
Type: physicochemical
Details: for solubility: aqueous buffer, read-out: Solubility (average, mg/ml); for Solubility in the pH-range of human muscle and subcutaneous tissues: pH 6.8-7.5

Compound	solubility (pH = 3, 37° C.)	solubility (pH = 4.5, 37° C.)	solubility (pH = 5.5, 37° C.)	solubility (pH = 7.5, 37° C.)	Solubility in the pH-range of human muscle and subcutaneous tissues	Solubility category (USP) (pH = 3, 37° C.)	Solubility category (USP) (pH = 4.5, 37° C.)	Solubility category (USP) (pH = 5.5, 37° C.)	Solubility (average, mg/ml) (pH = 6.8, 37° C.)	Solubility category (USP) (pH = 6.8, 37° C.)	Solubility category (USP) (pH = 7.5, 37° C.)	solubility (pH = 4.4, 37° C.)	solubility (pH = 6.8, 37° C.)	Solubility category (USP) (pH = 4.4, 37° C.)	Solubility (average, mg/ml) (pH = 7.4, 37° C.)	Solubility category (USP) (pH = 7.4, 37° C.)
CN(C)C(=O)N[C@H]1CC[C@H](CCN2CCN(c3cccc(Cl)c3Cl)CC2)CC1 [Cariprazine hydrochloride]	6 mg/mL	13.8 mg/mL	0.27 mg/mL	0.001 mg/mL	practically insoluble	Slightly soluble	Sparingly soluble	Very slightly soluble	0.005 mg/mL	Practically insoluble	Practically insoluble					
CN(C)C(=O)N[C@H]1CC[C@H](CCN2CCN(c3cccc(Cl)c3Cl)CC2)CC1 [Cariprazine base, trans-N-{4-[2-[4-(2,3-dichlorophenyl)-piperazin-1-yl]-ethyl]-cyclohexyl}-N′,N′-dimethylurea]	0.204 mg/mL (≈ 477 µM)				practically insoluble	Very slightly soluble				Practically insoluble		0.357 mg/mL (≈ 835 µM)	0.0007 mg/mL (≈ 1.64 µM)	Very slightly soluble	not detectable	Practically insoluble
